Experimental data taken from patent publication US20230146455A1, “TREATMENT OF INFLAMMATORY DISEASES WITH PEPTIDES AND PHARMACEUTICAL COMPOSITIONS” (Yuyu Pharma, Inc., priority 2020, published 2023).
Values joined by “and” are separate entries in the source; they are usually repeats but may differ in a detail not shown here. Equal values may be shown once. Where a SMILES comes first, the peptide text is derived from it. [ ]: non-standard residue; d: D form. Hyp = O=C(O)[C@@H]1C[C@@H](O)CN1

Tested on: VEGF-A
Assay: Example 9 Luminex, LPS hPBMCs: VEGF-A
Assay type: cell-based, human
Procedure: Treatment Human PBMCs were pretreated with YY-101, YDE-011 and YDE-043 or reference compound; Xiidra® at various concentration (ranging from 1 nM to 100 uM) for 2 h before stimulation. An equal volume of 0.5% DMSO was used as a vehicle control. Then, the cells were treated with LPS at 5 ug/ml. The supernatants from treated cells were harvested at 24 h and placed in a 96 well for Luminex cytokine & chemokine profiling using a Luminex 200 multiplex assay (Luminex; R&D system, USA).
The main study arm with triplicate wells per group in a 24-well plate: • 1. Blank • 2. PBMC: 0.5% DMSO • 3. PBMC+LPS (5 ug/ml) • 4. PBMC+YY-101 100 uM • 5. PBMC+YY-101 10 uM • 6. PBMC+YY-101 1 uM • 7. PBMC+YY-101 0.1 uM • 8. PBMC+YY-101 0.01 uM • 9. PBMC+LPS (5 ug/ml)+Xiidra®100 uM • 10. PBMC+LPS (5 ug/ml)+Xiidra® 10 uM • 11. PBMC+LPS (5 ug/ml)+Xiidra® 1 uM • 12. PBMC+LPS (5 ug/ml)+Xiidra®0.1 uM • 13. PBMC+LPS (5 ug/ml)+Xiidra®0.01 uM • 14. PBMC+LPS (5 ug/ml)+Xiidra®0.001 uM • 15. PBMC+LPS (5 ug/ml)+YY-101 100 uM • 16. PBMC+LPS (5 ug/ml)+YY-101 10 uM • 17. PBMC+LPS (5 ug/ml)+YY-101 1 uM • 18. PBMC+LPS (5 ug/ml)+YY-101 0.1 uM • 19. PBMC+LPS (5 ug/ml)+YY-101 0.01 uM • 20. PBMC+LPS (5 ug/ml)+YY-101 0.001 uM • 21. PBMC+LPS (5 ug/ml)+YDE-011 100 uM • 22. PBMC+LPS (5 ug/ml)+YDE-011 10 uM • 23. PBMC+LPS (5 ug/ml)+YDE-011 1 uM • 24. PBMC+LPS (5 ug/ml)+YDE-011 0.1 uM • 25. PBMC+LPS (5 ug/ml)+YDE-011 0.01 uM • 26. PBMC+LPS (5 ug/ml)+YDE-011 0.001 uM • 27. PBMC+LPS (5 ug/ml)+YDE-043 100 uM • 28. PBMC+LPS (5 ug/ml)+YDE-043 10 uM • 29. PBMC+LPS (5 ug/ml)+YDE-043 1 uM • 30. PBMC+LPS (5 ug/ml)+YDE-043 0.1 uM • 31. PBMC+LPS (5 ug/ml)+YDE-043 0.01 uM • 32. PBMC+LPS (5 ug/ml)+YDE-043 0.001 uM
Multiplex assay was used to measure 30 cytokines and chemokines. The 1:2, 1:10 and 1:200 diluted cell supernatant and serial dilution of the standard were dispensed into a 96 well plate at 50 ul/well. Then, the pre-mixed cocktail of antibody-coated magnetic beads was dispensed at 50 ul/well and incubated at room temperature for 2 h in a horizontal orbital microplate shaker at 800±500 rpm. The beads were washed using a magnetic device to prevent loss. The biotin-antibody was dispensed in 50 ul of each well and incubated at room temperature for 1 h in a shaker at 800±500 rpm. After washing, streptavidin-PE was added at 50 ul/well and incubated at room temperature for 30 min in a shaker under the same conditions. Finally, after washing, wash buffer (100 ul/well) was added to the plate and incubated in a shaker for 2 min. The Luminex™ 200 setting were set according to the manufacturer's protocol. The data was calculated with a standard five-parameter logistic nonlinear regression analysis of the data (xPonent software 4.2, USA). The levels of cytokine/chemokine are normalized to the live cell counts (1×10^5 cells/mL) and presented as concentrations per mL (pg/mL or ng/mL).

[1] = PBMC + LPS(5 ug/ml) + test article 0.001 uM, Mean
[2] = PBMC + LPS(5 ug/ml) + test article 0.001 uM, single replicates
[3] = PBMC + LPS(5 ug/ml) + test article 0.01 uM, Mean
[4] = PBMC + LPS(5 ug/ml) + test article 0.01 uM, single replicates
[5] = PBMC + LPS(5 ug/ml) + test article 0.1 uM, Mean
[6] = PBMC + LPS(5 ug/ml) + test article 0.1 uM, single replicates
[7] = PBMC + LPS(5 ug/ml) + test article 1 uM, Mean
[8] = PBMC + LPS(5 ug/ml) + test article 1 uM, single replicates
[9] = PBMC + LPS(5 ug/ml) + test article 10 uM, Mean
[10] = PBMC + LPS(5 ug/ml) + test article 10 uM, single replicates
[11] = PBMC + LPS(5 ug/ml) + test article 100 uM, Mean
[12] = PBMC + LPS(5 ug/ml) + test article 100 uM, single replicates
[13] = PBMC + test article 0.01 uM, no LPS, Mean
[14] = PBMC + test article 0.01 uM, no LPS, single replicates
[15] = PBMC + test article 0.1 uM, no LPS, Mean
[16] = PBMC + test article 0.1 uM, no LPS, single replicates
[17] = PBMC + test article 1 uM, no LPS, Mean
[18] = PBMC + test article 1 uM, no LPS, single replicates

## CC(C)C[C@H](NC(=O)CNC(=O)[C@H](CC(=O)O)NC(=O)[C@H](CCC(N)=O)NC(=O)CNC(=O)[C@@H]1C[C@@H](O)CN1)C(=O)N[C@@H](C)C(=O)NCC(=O)N1CCC[C@H]1C(=O)N[C@@H](CCCCN)C(=O)O [YY-101] (H-[Hyp]GQDGLAGPK-OH; N-terminus and C-terminus assumed)
[1]
  Concentration, Bead name: VEGF-A: 3.0 pg/mL
  MFI, Bead name: VEGF-A: −0.9
  conc/live cell, Bead name: VEGF-A: 0.4 pg/10^5
[2]
  Concentration, Bead name: VEGF-A: 2.2 pg/mL and 6.1 pg/mL and 0.6 pg/mL
  MFI, Bead name: VEGF-A: −1.3 and 0.3 and −1.8
  conc/live cell, Bead name: VEGF-A: 0.4 pg/10^5 and 0.9 pg/10^5 and 0.1 pg/10^5
[3]
  Concentration, Bead name: VEGF-A: 0.6 pg/mL
  MFI, Bead name: VEGF-A: −3.1
  conc/live cell, Bead name: VEGF-A: 0.0 pg/10^5
[4]
  Concentration, Bead name: VEGF-A: 0.6 pg/mL
  MFI, Bead name: VEGF-A: −1.8 and −3.8 (2×)
  conc/live cell, Bead name: VEGF-A: 0.1 pg/10^5 and 0.0 pg/10^5 (2×)
[5]
  Concentration, Bead name: VEGF-A: 2.6 pg/mL
  MFI, Bead name: VEGF-A: −1.1
  conc/live cell, Bead name: VEGF-A: 0.4 pg/10^5
[6]
  Concentration, Bead name: VEGF-A: 3.6 pg/ml (2×) and 0.6 pg/ml
  MFI, Bead name: VEGF-A: −0.8 (2×) and −1.8
  conc/live cell, Bead name: VEGF-A: 0.6 pg/10^5 (2×) and 0.1 pg/10^5
[7]
  Concentration, Bead name: VEGF-A: 2.9 pg/mL
  MFI, Bead name: VEGF-A: −1.4
  conc/live cell, Bead name: VEGF-A: 0.3 pg/10^5
[8]
  Concentration, Bead name: VEGF-A: 2.2 pg/mL and 3.6 pg/mL
  MFI, Bead name: VEGF-A: −2.3 and −1.3 and −0.8
  conc/live cell, Bead name: VEGF-A: 0.0 pg/10^5 and 0.3 pg/10^5 and 0.6 pg/10^5
[9]
  Concentration, Bead name: VEGF-A: 2.7 pg/mL
  MFI, Bead name: VEGF-A: −1.1
  conc/live cell, Bead name: VEGF-A: 0.4 pg/10^5
[10]
  Concentration, Bead name: VEGF-A: 2.2 pg/ml (2×) and 3.6 pg/ml
  MFI, Bead name: VEGF-A: −1.3 (2×) and −0.8
  conc/live cell, Bead name: VEGF-A: 0.4 pg/10^5 and 0.3 pg/10^5 and 0.5 pg/10^5
[11]
  Concentration, Bead name: VEGF-A: 4.3 pg/mL
  MFI, Bead name: VEGF-A: −0.4
  conc/live cell, Bead name: VEGF-A: 0.7 pg/10^5
[12]
  Concentration, Bead name: VEGF-A: 6.1 pg/ml (2×) and 0.6 pg/ml
  MFI, Bead name: VEGF-A: 0.3 (2×) and −1.8
  conc/live cell, Bead name: VEGF-A: 1.0 pg/10^5 (2×) and 0.1 pg/10^5
[13]
  Concentration, Bead name: VEGF-A: 8.4 pg/mL
  MFI, Bead name: VEGF-A: 1.3
  conc/live cell, Bead name: VEGF-A: 1.7 pg/10^5
[14]
  Concentration, Bead name: VEGF-A: 10.7 pg/mL and 6.1 pg/mL
  MFI, Bead name: VEGF-A: 2.3 and 0.3
  conc/live cell, Bead name: VEGF-A: 2.1 pg/10^5 and 1.3 pg/10^5
[15]
  Concentration, Bead name: VEGF-A: 7.3 pg/mL
  MFI, Bead name: VEGF-A: 0.8
  conc/live cell, Bead name: VEGF-A: 1.4 pg/10^5
[16]
  Concentration, Bead name: VEGF-A: 6.1 pg/mL and 8.5 pg/mL
  MFI, Bead name: VEGF-A: 0.3 and 1.3
  conc/live cell, Bead name: VEGF-A: 1.4 pg/10^5 and 1.5 pg/10^5
[17]
  Concentration, Bead name: VEGF-A: 7.3 pg/mL
  MFI, Bead name: VEGF-A: 0.8
  conc/live cell, Bead name: VEGF-A: 1.3 pg/10^5
[18]
  Concentration, Bead name: VEGF-A: 8.5 pg/mL and 6.1 pg/mL
  MFI, Bead name: VEGF-A: 1.3 and 0.3
  conc/live cell, Bead name: VEGF-A: 1.5 pg/10^5 and 1.1 pg/10^5
PBMC + test article 10 uM, no LPS, Mean
  Concentration, Bead name: VEGF-A: 7.9 pg/mL
